# Assay results published in patent US20110224245A1, “Treatment Of Neurological Disorders Using Huperzine” (President and Fellows of Harvard College, priority 2008, published 2011).
# “Also recorded” adds a separate entry of the source.
# How the values were obtained:
# [1] = system: maximal electroshock seizure (MES); experiment: Maximal Electroshock (MES) model, mice i.p.; type: in vivo; settings: 1 mg/kg
# Description: (§1) Huperzine A was evaluated in the Maximal Electroshock (MES) and Subcutaneous Metrazol (pentylenetetrazol; SCMET) models of generalized tonic-clonic and myoclonic seizures, respectively in mice and rats.
# The maximal electroshock (MES) model is an art recognized test, useful to investigate the efficacy of therapeutic agents against grand mal seizures. Maximal seizures were induced by the application of electrical current to the brain via corneal electrodes. The stimulus parameters for mice were 50 mA in a pulse of 60 Hz for 200 ms. The animals were given the huperzine dissolved in methyl cellulose and spasm inhibition was recorded as a measure of anticonvulsant activity.
# Huperzine A was either administered in a soluble form (SOL) or as a suspension (SUS). […]
# Male, 18-25 g CF1 mice and 100-125 g Sprague-Dawley rats (Charles River Laboratories, Wilmington, Mass.) were used as the experimental animals. […] The ability of the test substance to prevent seizures induced by 6 Hz corneal stimulation (32 mA, 3 sec duration) was assessed at various times after i.p. administration of 1 mg/kg HupA For assessment of hippocampal kindling, HupA (1 mg/kg, i.p.) was administered. The ability of the compound to block the expression of hippocampal kindled seizures was evaluated using the rapid hippocampal kindling model (White et al., 2002). […]
# [2] = system: Subcutaneous Metrazol (pentylenetetrazol; SCMET) seizures; experiment: Subcutaneous Metrazol (SCMET / scPTZ) model, rats, oral; type: in vivo
# Description: as §1
# The Subcutaneous Metrazole (SCMET) model is also an art-recognized test for therapeutic agents for epilepsy, and in particular, is useful for investigating petite mal seizures. A Metrazole dose of 85 mg/kg was administered subcutaneously to induce seizures. Huperzine was then administered and the animals observed.
# Peak anticonvulsant activity was observed one-hour after p.o. administration of 1 mg/kg.
# [3] = system: mice; experiment: Toxicity / minimal motor impairment after ICV administration (6 Hz screen); type: in vivo; settings: for Toxic (animals toxic over number tested): 0.5 h
# Description: Doses listed as pmol/5 microliter injection volume for ICV. TD50 at 0.5 hrs: 36.15 (9.35-121.74) 1.57+/−0.51.
# (§2) Minimal toxicity was identified in mice by the rotorod procedure.
# [4] = Solubility in methyl cellulose solvent; type: physicochemical
# Description: (§3) Huperzine A was either administered in a soluble form (SOL) or as a suspension (SUS). […] To produce the suspension, huperzine A was ground to a powder using a mortar and pestle, and the powder mixed with methyl cellulose. This mixture was then sonicated to produce a suspension that was subsequently administered to mice in the weight range of 19.0 to 25.5 g. The data are presented as the number of mice showing an effect (N) from the full number of mice (F) tested. […] At four hours post administration, all three mice were protected (i.e., 100% were protected).
# [5] = system: 6 Hz seizures; experiment: 6 Hz seizure test, mice i.p.; type: in vivo; settings: for Time to Peak Effect N/F: 6 HZ, 0.83 mg/kg
# Description: HupA was also evaluated for its ability to modify tonic extension, minimal clonic, limbic seizures in the maximal electroshock seizure (MES), subcutaneous pentylenetetrazol (sc PTZ), and 6 Hz seizure tests following intraperitoneal administration. These three tests are highly predictive of efficacy against human generalized tonic-clonic (MES), generalized myoclonic (sc PTZ), and refractory limbic (6 Hz) seizures, respectively. In addition, it was tested for its ability to prevent the expression of Stage V seizures in the hippocampal kindled rat model of partial epilepsy.
# Male, 18-25 g CF1 mice and 100-125 g Sprague-Dawley rats (Charles River Laboratories, Wilmington, Mass.) were used as the experimental animals. Animals were pretreated intraperitoneally (i.p.) with increasing doses of HupA and tested at various times after administration for protection against tonic extension (MES test), minimal clonic (s.c. PTZ test), limbic (6 Hz), or secondarily generalized (kindled rat) seizures. Seizure testing was carried out as follows. For the MES and 6 Hz tests, a drop of anesthetic/electrolyte solution (0.5% tetracaine hydrochloride in 0.9% saline) was applied to the eyes of each animal prior to placement of the corneal electrodes. The electrical stimulus in the MES test was 50 mA, 60 Hz, for mice and 150 mA, 60 Hz, for rats, delivered for 0.2 sec (White et al., 2002, In R. H. Levy et al., eds. Antiepileptic Drugs, 5th edition, p. 36-48, Philadelphia: Lippincott Williams & Wilkins). The ability of the test substance to prevent seizures induced by 6 Hz corneal stimulation (32 mA, 3 sec duration) was assessed at various times after i.p. administration of 1 mg/kg HupA For assessment of hippocampal kindling, HupA (1 mg/kg, i.p.) was administered. The ability of the compound to block the expression of hippocampal kindled seizures was evaluated using the rapid hippocampal kindling model (White et al., 2002). Animals not displaying secondarily generalize seizures were considered protected.
# [6] = system: mice; experiment: Toxicity Model (TOX), rotorod / minimal motor impairment, mice i.p.; type: in vivo; settings: for Comment (6 Hz test, 22 mA) / Comment (6 Hz test, 32 mA): 1 h
# Description: To investigate the neurotoxicity levels of the huperzine compounds, the Toxicity Model (TOX) using a rotorod is employed. The animals (e.g., mice) were trained to stand on an accelerating rotorod rotating at 10 rev min^−1 with a diameter of 3.2 cm. The trained animal can be given the huperzine compound at various doses and the effect of huperzine on their motor skills can be determined. The dose at which the animals fell off the rotorod is the toxic dose.
# The neurotoxicity of huperzine was tested in the rotorod test. The mice were trained to stand on an accelerating rotorod rotating at 10 rev min^−1 with a diameter of 3.2 cm. The trained animals were given the huperzine at various doses and the effect of huperzine on their motor skills was determined. The dose at which the animals fell off the rotorod was the toxic dose.
# as §3, with “protected). […]” for “protected).”
# as §2
smiles,measurement,setting,value
C/C=C1\[C@H]2C=C(C)C[C@]1(N)c1ccc(=O)[nH]c1C2 [Huperzine A],protection in the mouse MES test (FIG. 1),[1],time-dependent protection
same,time of peak anticonvulsant activity,[2]; after p.o. administration of 1 mg/kg,one-hour
same,time of peak activity post administration,"[2]; rats, 1 mg/kg oral",between 30 minutes and two hours
same,body temperature,[3],Dose-dependent drop in body temperatures
same,Toxic (animals toxic over number tested),[3]; dose 0.01 (pmol/5 microliter; head mg/kg),0/8 Toxic
same,Toxic (animals toxic over number tested),[3]; dose 1 (pmol/5 microliter; head mg/kg),0/8 Toxic
same,Toxic (animals toxic over number tested),[3]; dose 10 (pmol/5 microliter; head mg/kg),2/8 toxic
same,Toxic (animals toxic over number tested),[3]; dose 100 (pmol/5 microliter; head mg/kg),6/8 Toxic
same,Toxic (animals toxic over number tested),[3]; dose 1000 (pmol/5 microliter; head mg/kg),4/4 toxic
same,TD50,"[3]; 0.5 hrs, (95% interval in brackets)",36.15 (9.35-121.74) pmol/5 microliter injection volume
same,Response comment,"[3]; dose 10, 0.25 h",Minimal motor impairment
same,Response comment,"[3]; dose 10, 0.5 h",Minimal motor impairment
same,Response comment,"[3]; dose 100, 0.25 h",Minimal motor impairment
same,Response comment,"[3]; dose 100, 0.5 h",Minimal motor impairment
same,Response comment,"[3]; dose 100, 1 h",Minimal motor impairment
same,solubility in the methyl cellulose solvent,[4]; at concentrations of 0.1-0.3 mg/kg,readily soluble
same,solubility in the methyl cellulose solvent,[4]; at higher concentrations (administered as suspension),not soluble
same,protection in the mouse 6 Hz test (FIG. 1),[5]; 0.8 mg/kg,time-dependent protection
same,Time to Peak Effect N/F,[5]; 0.25 h,1/4
same,Time to Peak Effect N/F,[5]; 0.5 h,1/4
same,Time to Peak Effect N/F,[5]; 1.0 h,4/4
same,Time to Peak Effect N/F,[5]; 2.0 h,2/4
same,Time to Peak Effect N/F,[5]; 4.0 h,0/4
same,protection against 6 Hz seizures (FIG. 2),"[5]; mouse, in vivo",dose-dependent protection
same,TOX N/F (mice showing an effect / mice tested),"[6]; 0.1 mg/kg i.p., SOL, 4.0 h",0/4
same,"Comment (6 Hz test, 22 mA)",[6]; 0.18 mg/kg IP,Minimal motor impairment
same,"Comment (6 Hz test, 32 mA)",[6]; 0.2 mg/kg IP,Tremors
same,"Comment (6 Hz test, 32 mA)",[6]; 0.3 mg/kg IP,Tremors; also recorded: Minimal motor impairment
same,TOX N/F (mice showing an effect / mice tested),"[6]; 0.3 mg/kg i.p., SOL, 4.0 h",0/4
same,"Comment (6 Hz test, 22 mA)",[6]; 0.35 mg/kg IP,Minimal motor impairment
same,"Comment (6 Hz test, 32 mA)",[6]; 0.42 mg/kg IP,Tremors; also recorded: Minimal motor impairment
same,"Comment (6 Hz test, 22 mA)",[6]; 0.7 mg/kg IP,Tremors; also recorded: Minimal motor impairment
same,"Comment (6 Hz test, 32 mA)",[6]; 0.83 mg/kg IP,Tremors; also recorded: Minimal motor impairment
same,TOX N/F (mice showing an effect / mice tested),"[6]; 1 mg/kg i.p., SOL, 0.5 h, (T) animals displaying tremors",4/4 (T)^2
same,TOX N/F (mice showing an effect / mice tested),"[6]; 1 mg/kg i.p., SOL, 4.0 h, (T) animals displaying tremors",2/2 (T)
same,TOX N/F (mice showing an effect / mice tested),"[6]; 3 mg/kg i.p., SUS, 0.5 h",8/8
same,TOX N/F (mice showing an effect / mice tested),"[6]; 3 mg/kg i.p., SUS, 4.0 h, (T) animals displaying tremors",4/4 (T)
same,TOX N/F (mice showing an effect / mice tested),"[6]; 10 mg/kg i.p., SUS, 0.5 h",4/4
same,TOX N/F (mice showing an effect / mice tested),"[6]; 10 mg/kg i.p., SUS, 4.0 h, (T) animals displaying tremors",2/2 (T)
same,TOX N/F (mice showing an effect / mice tested),"[6]; 30 mg/kg i.p., SUS, 0.5 h, (D) death of animals",4/4 (D)^3
same,TOX N/F (mice showing an effect / mice tested),"[6]; 100 mg/kg i.p., SUS, 0.5 h, (D) death of animals",8/8 (D)
same,TOX N/F (mice showing an effect / mice tested),"[6]; 300 mg/kg i.p., SUS, 0.5 h, (D) death of animals",4/4 (D)
same,behavioral impairment at anticonvulsant doses,[6]; mice,marked motor impairment
